# Assay results as given in article PMC4604765, “Eye drop delivery of pigment epithelium-derived factor-34 promotes retinal ganglion cell neuroprotection and axon regeneration” (Molecular and Cellular Neurosciences, 2015).
# Read-outs that look alike come from different tables or passages of the source. No end group written: not given here.
# Assays:
# [1] = tested on: embryonic rat spinal motor neurons; conditions: ref Bilak et al., 2002; cited from earlier work
# Text: Axotomised RGCs are not viable unless treated with neurotrophic factors such as brain-derived neurotrophic factor, ciliary neurotrophic factor and glial cell line-derived factor ([Ahmed et al., 2006b; Benowitz and Yin, 2007; Watanabe et al., 2003; Yip and So, 2000]). Recently, we confirmed that, after optic nerve crush (ONC), PEDF is RGC neuroprotective and axogenic ([Vigneswara et al., 2013]), whilst other neuroprotective and anti-angiogenic N-terminal fragments of the native peptide exist ([Bilak et al., 2002; Gvritishvili et al., 2010; Li et al., 2006; Mirochnik et al., 2009]) including the ...
# [2] = single eye drop, ELISA
# RGC axons = assay: RGC axon regeneration after optic nerve crush (GAP-43 immunohistochemistry of optic nerve); format: in vivo, rat; conditions: 21 days after ONC; for number of GAP-43+ axons distal from the lesion site: daily eye drops 1.88 nM; for number of GAP-43+ axons in distal optic nerve stump: weekly intravitreal 1.88 nM
# Procedure: In a separate set of experiments comprising the same treatment groups, 6 rats/treatment (i.e. 12 eyes/optic nerves/treatment) were used to evaluate RGC axon regeneration by immunostaining with growth-associated protein-43 (GAP-43) in the optic nerve.
# In further experiments, 12 rats (24 eyes/optic nerves)/treatment received 1.88 nM PEDF-34 eye drops daily. Six rats (12 eyes)/treatment were used to assess RGC survival at 21 days using FG backfilling, whilst the remaining 6 rats (12 eyes/optic nerves)/treatment were used to evaluate RGC axon regeneration at 21 days by GAP-43 immunohistochemistry.
# All animal procedures were licenced and approved by the United Kingdom Home Office and the University of Birmingham ethical review committee and conformed to the Federation of European Laboratory Animal Associations (FELASA) guidelines. Optic nerves were exposed surgically in anaesthetised adult female Sprague–Dawley rats (170–220 g) through a supraorbital approach and crushed bilaterally using calibrated watchmakers forceps, 2 mm from the lamina cribrosa as described by us previously ([Vigneswara et al., 2013, 2014]).
# Either PBS, or 0.268, 0.67, 1.34, 1.88, or 2.68 nM PEDF dissolved in 5 μl of sterile PBS was injected intravitreally immediately after ONC (0 days) and repeated at 7 and 14 days after ONC with the same doses of PEDF. […] Animals survived for 19 days before FG back-labelling and killing by rising CO2 levels 2 days later, and eyes/optic nerves harvested for retinal FG wholemounts.
# Animals were killed with an overdose of CO2 and intracardially perfused with 4% formaldehyde, eyes and optic nerves were immersion fixed in 4% formaldehyde for a further 2 h before cryoprotection in a graded series of sucrose. Eyes and optic nerves were embedded in optimal cutting temperature (OCT) compound (Raymond A. Lamb, Eastbourne, UK) and stored at − 80 °C. Subsequently, 15 μm-thick parasagittal eye or longitudinal optic nerve sections were cut using a cryostat (Brights Instruments, Huntingdon, UK), adhered onto glass slides and stored at − 20 °C until required.
# Immunohistochemistry was performed as described by us previously ([Vigneswara et al., 2013, 2014]). Briefly, sections were thawed, washed at RT in PBS and permeabilised. Non-specific binding sites were blocked in 3% bovine serum albumin (BSA) containing 0.1% Triton X-100 and then sections were incubated in primary antibody diluted in PBS containing 3% BSA and 0.05% Tween-20, overnight at 4 °C (16–18 h). Monoclonal anti-GAP-43 antibody (1:500 dilution; Invitrogen) stained regenerating axons in optic nerve sections (Table 1). […] Sections were then washed in PBS and incubated with either Alexa Fluor 488 or Texas Red-labelled secondary antibodies (1:400 dilution; Invitrogen) for 1 h at RT, washed in PBS, mounted in Vectamount containing DAPI (Vector Laboratories) and examined with a Zeiss Axioplan 2 fluorescent microscope, equipped with an AxioCam HRc camera and Axiovision software. The negative control sections were used to set the background threshold levels of fluorescence before image capture.
# Regenerating axons in the optic nerve were quantified using previously published methods ([Leon et al., 2000; Lorber et al., 2009; Vigneswara et al., 2013, 2014]). […] Briefly, an observer blinded to the identity of the slides […] through each nerve (n = 6 rats/12 optic nerves/treatment).
sequence,measurement,setting,value
DPFFKVPVNKLAAAVSNFGYDLYRVRSSTSPTTN [PEDF-34],neuroprotection of embryonic rat spinal motor neurons,[1],not neuroprotective
same,level of total PEDF in the retina,"[2]; 1.88 nM dose (peak), 0.5 h",0.18 ± 0.007 nM
same,level of total PEDF in the vitreous,"[2]; 1.88 nM dose (peak), 0.5 h, 6 animals (12 eyes)",0.42 ± 0.01 nM
same,peak level of total PEDF in the retina,[2]; 4 h,0.24 ± 0.005 nM
same,peak level of total PEDF in the vitreous,[2]; 4 h,0.39 ± 0.004 nM
same,peak level of total PEDF in the retina,[2]; 24 h,0.12 ± 0.002 nM
same,peak level of total PEDF in the vitreous,[2]; 24 h,0.21 ± 0.004 nM
same,number of GAP-43+ axons distal from the lesion site,"RGC axons; 200 μm distal, n = 6 rats/12 optic nerves",4049 ± 355 axons
same,number of GAP-43+ axons distal from the lesion site,RGC axons; 500 μm distal,2893 ± 315 axons
same,number of GAP-43+ axons distal from the lesion site,RGC axons; 1000 μm distal,2043 ± 120 axons
same,number of GAP-43+ axons distal from the lesion site,RGC axons; 1500 μm distal,1285 ± 126 axons
same,number of GAP-43+ axons distal from the lesion site,RGC axons; 2000 μm distal,884 ± 139 axons
same,number of GAP-43+ axons distal from the lesion site,RGC axons; 2500 μm distal,582 ± 155 axons
same,number of GAP-43+ axons in distal optic nerve stump,"RGC axons; 200 μm from the lesion site, n = 6 rats/12 optic nerves",2038 ± 234 axons
same,number of GAP-43+ axons in distal optic nerve stump,RGC axons; 500 μm from the lesion site,1733 ± 237 axons
same,number of GAP-43+ axons in distal optic nerve stump,RGC axons; 1000 μm from the lesion site,1462 ± 175 axons
same,number of GAP-43+ axons in distal optic nerve stump,RGC axons; 1500 μm from the lesion site,945 ± 100 axons
same,number of GAP-43+ axons in distal optic nerve stump,RGC axons; 2000 μm from the lesion site,79 ± 44 axons
